Experimental data from publication PMC11882969 (Nature Communications, 2025).
Several values for one entry are separate records, joined by “and”; a condition that tells them apart may be missing. Equal entries are not always repeated.

Tests used:
Format in all cases: cell-based
[1] = molecular target: panel of 320 non-olfactory GPCRs (Homo sapiens, UniProt P41587)
[2] = molecular target: panel of 320 non-olfactory GPCRs (Homo sapiens, UniProt Q96LB2)
[3] = molecular target: panel of 320 non-olfactory GPCRs (Homo sapiens, UniProt P32238)
[4] = molecular target: panel of 320 non-olfactory GPCRs (Homo sapiens, UniProt Q9H3N8)
[5] = molecular target: panel of 320 non-olfactory GPCRs (Homo sapiens, UniProt Q96CH1)
[6] = molecular target: panel of 320 non-olfactory GPCRs (Homo sapiens, UniProt P22888)
[7] = molecular target: panel of 320 non-olfactory GPCRs (Homo sapiens, UniProt P50406)
[8] = molecular target: panel of 320 non-olfactory GPCRs (Homo sapiens, UniProt Q8WXD0)
[9] = molecular target: panel of 320 non-olfactory GPCRs (Homo sapiens, UniProt P51681)
[10] = molecular target: panel of 320 non-olfactory GPCRs (Homo sapiens, UniProt P18825)
[11] = molecular target: panel of 320 non-olfactory GPCRs (Homo sapiens, UniProt O14626)
[12] = molecular target: panel of 320 non-olfactory GPCRs (Homo sapiens, UniProt P34998)
[13] = molecular target: panel of 320 non-olfactory GPCRs (Homo sapiens, UniProt P32247)
[14] = molecular target: panel of 320 non-olfactory GPCRs (Homo sapiens, UniProt P21731)
[15] = molecular target: panel of 320 non-olfactory GPCRs (Homo sapiens, UniProt Q8NFJ5)
[16] = molecular target: panel of 320 non-olfactory GPCRs (Homo sapiens, UniProt Q14330)
[17] = molecular target: panel of 320 non-olfactory GPCRs (Homo sapiens, UniProt P47872)
[18] = molecular target: panel of 320 non-olfactory GPCRs (Homo sapiens, UniProt O60883)
[19] = molecular target: panel of 320 non-olfactory GPCRs (Homo sapiens, UniProt Q9BZJ7)
[20] = molecular target: panel of 320 non-olfactory GPCRs (Homo sapiens, UniProt P24530)
[21] = molecular target: panel of 320 non-olfactory GPCRs (Homo sapiens, UniProt Q96RJ0)
[22] = molecular target: panel of 320 non-olfactory GPCRs (Homo sapiens, UniProt Q13639)
[23] = molecular target: panel of 320 non-olfactory GPCRs (Homo sapiens, UniProt Q8NFN8)
[24] = molecular target: panel of 320 non-olfactory GPCRs (Homo sapiens, UniProt Q8IWK6)
[25] = molecular target: panel of 320 non-olfactory GPCRs (Homo sapiens, UniProt Q9NS67)
[26] = molecular target: panel of 320 non-olfactory GPCRs (Homo sapiens, UniProt Q9HBX9)
[27] = molecular target: panel of 320 non-olfactory GPCRs (Homo sapiens, UniProt P49286)
[28] = molecular target: panel of 320 non-olfactory GPCRs (Homo sapiens, UniProt Q9HB89)
[29] = molecular target: panel of 320 non-olfactory GPCRs (Homo sapiens, UniProt P08588)
[30] = molecular target: panel of 320 non-olfactory GPCRs (Homo sapiens, UniProt P43115)
[31] = molecular target: panel of 320 non-olfactory GPCRs (Homo sapiens, UniProt Q02643)
[32] = molecular target: panel of 320 non-olfactory GPCRs (Homo sapiens, UniProt Q96PE1)
[33] = molecular target: panel of 320 non-olfactory GPCRs (Homo sapiens, UniProt P21462)
[34] = molecular target: panel of 320 non-olfactory GPCRs (Homo sapiens, UniProt Q15722)
[35] = molecular target: panel of 320 non-olfactory GPCRs (Homo sapiens, UniProt Q14831)
[36] = molecular target: panel of 320 non-olfactory GPCRs (Homo sapiens, UniProt Q96AM1)
[37] = molecular target: panel of 320 non-olfactory GPCRs (Homo sapiens, UniProt P30559)
Further: test concentration or dose not given here.

panel of 320 non-olfactory GPCRs (Homo sapiens, UniProt Q14330), sequence (Q14330 whole entry): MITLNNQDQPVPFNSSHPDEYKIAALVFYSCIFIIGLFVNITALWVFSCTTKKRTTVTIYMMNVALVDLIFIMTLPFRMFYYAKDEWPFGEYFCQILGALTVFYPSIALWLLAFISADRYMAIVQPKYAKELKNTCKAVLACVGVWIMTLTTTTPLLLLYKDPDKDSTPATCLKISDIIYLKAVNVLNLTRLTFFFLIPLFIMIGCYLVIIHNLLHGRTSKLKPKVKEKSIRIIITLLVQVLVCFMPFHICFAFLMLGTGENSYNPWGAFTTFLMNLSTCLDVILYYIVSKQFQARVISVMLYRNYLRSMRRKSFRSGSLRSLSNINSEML
panel of 320 non-olfactory GPCRs (Homo sapiens, UniProt Q8NFN8), sequence (Q8NFN8 whole entry): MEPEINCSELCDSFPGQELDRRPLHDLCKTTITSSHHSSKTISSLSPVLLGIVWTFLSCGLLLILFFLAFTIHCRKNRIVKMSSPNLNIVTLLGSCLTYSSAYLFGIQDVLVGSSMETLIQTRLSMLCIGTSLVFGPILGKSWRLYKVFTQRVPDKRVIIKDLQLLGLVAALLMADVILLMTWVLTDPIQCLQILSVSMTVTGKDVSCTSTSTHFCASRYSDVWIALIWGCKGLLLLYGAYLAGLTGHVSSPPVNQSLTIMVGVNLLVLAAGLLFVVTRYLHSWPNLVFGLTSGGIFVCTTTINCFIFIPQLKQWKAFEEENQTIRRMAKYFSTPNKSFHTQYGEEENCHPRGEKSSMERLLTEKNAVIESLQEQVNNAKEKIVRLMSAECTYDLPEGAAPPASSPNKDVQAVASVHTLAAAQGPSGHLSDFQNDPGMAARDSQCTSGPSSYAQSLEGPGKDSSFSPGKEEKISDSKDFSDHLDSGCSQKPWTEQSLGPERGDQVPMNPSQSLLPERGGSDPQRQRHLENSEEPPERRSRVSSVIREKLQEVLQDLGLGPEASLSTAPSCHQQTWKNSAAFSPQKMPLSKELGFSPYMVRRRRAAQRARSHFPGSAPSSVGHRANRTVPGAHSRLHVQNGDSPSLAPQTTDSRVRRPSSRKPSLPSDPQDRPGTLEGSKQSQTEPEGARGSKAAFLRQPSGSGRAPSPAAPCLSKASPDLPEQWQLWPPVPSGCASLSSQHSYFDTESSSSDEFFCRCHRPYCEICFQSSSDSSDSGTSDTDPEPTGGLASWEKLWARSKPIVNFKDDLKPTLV
panel of 320 non-olfactory GPCRs (Homo sapiens, UniProt P51681), sequence (P51681 whole entry): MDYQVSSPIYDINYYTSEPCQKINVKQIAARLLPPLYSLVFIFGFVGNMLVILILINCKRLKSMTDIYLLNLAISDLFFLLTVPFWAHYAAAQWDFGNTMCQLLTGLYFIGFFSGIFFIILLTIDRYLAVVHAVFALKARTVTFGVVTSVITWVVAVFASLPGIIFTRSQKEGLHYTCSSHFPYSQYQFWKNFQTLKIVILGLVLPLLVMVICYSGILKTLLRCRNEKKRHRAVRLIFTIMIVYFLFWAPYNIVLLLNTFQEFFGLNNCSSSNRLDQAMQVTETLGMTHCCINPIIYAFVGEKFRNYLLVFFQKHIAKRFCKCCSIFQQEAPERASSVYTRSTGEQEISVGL
panel of 320 non-olfactory GPCRs (Homo sapiens, UniProt P21731), sequence (P21731 whole entry): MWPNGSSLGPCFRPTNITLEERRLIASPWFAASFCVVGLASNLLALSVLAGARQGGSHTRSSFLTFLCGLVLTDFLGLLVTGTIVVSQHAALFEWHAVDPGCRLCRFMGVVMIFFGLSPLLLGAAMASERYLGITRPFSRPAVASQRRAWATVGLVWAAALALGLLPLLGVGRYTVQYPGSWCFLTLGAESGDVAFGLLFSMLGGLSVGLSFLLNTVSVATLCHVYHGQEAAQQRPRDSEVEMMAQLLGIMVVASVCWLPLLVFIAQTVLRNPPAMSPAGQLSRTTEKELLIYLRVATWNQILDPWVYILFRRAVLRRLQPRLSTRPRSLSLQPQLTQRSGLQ
panel of 320 non-olfactory GPCRs (Homo sapiens, UniProt Q8NFJ5), sequence (Q8NFJ5 whole entry): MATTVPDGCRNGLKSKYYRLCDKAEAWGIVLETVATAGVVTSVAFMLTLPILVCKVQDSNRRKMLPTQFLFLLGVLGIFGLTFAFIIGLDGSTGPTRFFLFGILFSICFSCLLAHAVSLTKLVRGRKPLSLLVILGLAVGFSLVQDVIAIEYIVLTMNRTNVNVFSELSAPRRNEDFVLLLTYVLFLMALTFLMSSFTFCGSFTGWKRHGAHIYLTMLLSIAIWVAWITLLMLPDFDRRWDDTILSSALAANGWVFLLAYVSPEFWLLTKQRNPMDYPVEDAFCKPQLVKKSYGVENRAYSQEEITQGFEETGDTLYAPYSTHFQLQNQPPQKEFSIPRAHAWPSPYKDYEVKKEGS
panel of 320 non-olfactory GPCRs (Homo sapiens, UniProt P41587), sequence (P41587 24-438): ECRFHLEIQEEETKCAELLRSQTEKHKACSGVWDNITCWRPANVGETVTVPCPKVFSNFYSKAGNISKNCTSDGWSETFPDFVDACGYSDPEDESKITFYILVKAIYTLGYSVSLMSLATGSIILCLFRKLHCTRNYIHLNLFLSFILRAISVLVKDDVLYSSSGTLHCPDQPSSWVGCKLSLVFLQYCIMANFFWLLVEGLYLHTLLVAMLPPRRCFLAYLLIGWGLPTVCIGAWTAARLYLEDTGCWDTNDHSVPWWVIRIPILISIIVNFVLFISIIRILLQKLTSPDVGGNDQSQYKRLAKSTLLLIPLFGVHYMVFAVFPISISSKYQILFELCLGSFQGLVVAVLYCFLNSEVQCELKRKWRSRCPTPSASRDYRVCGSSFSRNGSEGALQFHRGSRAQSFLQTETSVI
panel of 320 non-olfactory GPCRs (Homo sapiens, UniProt P50406), sequence (P50406 whole entry): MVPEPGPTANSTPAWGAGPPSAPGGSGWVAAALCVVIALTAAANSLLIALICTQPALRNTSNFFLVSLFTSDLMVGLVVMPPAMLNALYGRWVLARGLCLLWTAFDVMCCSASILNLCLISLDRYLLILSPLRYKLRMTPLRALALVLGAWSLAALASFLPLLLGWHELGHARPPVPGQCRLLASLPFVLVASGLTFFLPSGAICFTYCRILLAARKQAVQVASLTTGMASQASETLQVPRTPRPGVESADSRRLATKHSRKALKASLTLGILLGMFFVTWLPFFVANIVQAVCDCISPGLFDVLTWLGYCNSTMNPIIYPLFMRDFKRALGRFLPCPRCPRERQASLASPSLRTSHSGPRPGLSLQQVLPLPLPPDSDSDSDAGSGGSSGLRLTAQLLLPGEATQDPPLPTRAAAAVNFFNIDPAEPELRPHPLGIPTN
panel of 320 non-olfactory GPCRs (Homo sapiens, UniProt Q13639), sequence (Q13639 whole entry): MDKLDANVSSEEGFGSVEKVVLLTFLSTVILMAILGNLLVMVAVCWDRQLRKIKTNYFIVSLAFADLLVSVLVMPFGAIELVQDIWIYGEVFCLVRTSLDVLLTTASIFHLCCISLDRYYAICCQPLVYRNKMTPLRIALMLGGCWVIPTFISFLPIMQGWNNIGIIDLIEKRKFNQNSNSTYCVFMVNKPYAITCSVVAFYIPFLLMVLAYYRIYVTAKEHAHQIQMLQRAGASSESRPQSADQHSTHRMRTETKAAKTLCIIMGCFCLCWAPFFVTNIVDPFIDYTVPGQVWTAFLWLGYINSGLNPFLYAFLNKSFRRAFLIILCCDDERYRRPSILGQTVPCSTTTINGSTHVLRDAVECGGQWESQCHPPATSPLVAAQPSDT
panel of 320 non-olfactory GPCRs (Homo sapiens, UniProt O60883), sequence (O60883 26-481): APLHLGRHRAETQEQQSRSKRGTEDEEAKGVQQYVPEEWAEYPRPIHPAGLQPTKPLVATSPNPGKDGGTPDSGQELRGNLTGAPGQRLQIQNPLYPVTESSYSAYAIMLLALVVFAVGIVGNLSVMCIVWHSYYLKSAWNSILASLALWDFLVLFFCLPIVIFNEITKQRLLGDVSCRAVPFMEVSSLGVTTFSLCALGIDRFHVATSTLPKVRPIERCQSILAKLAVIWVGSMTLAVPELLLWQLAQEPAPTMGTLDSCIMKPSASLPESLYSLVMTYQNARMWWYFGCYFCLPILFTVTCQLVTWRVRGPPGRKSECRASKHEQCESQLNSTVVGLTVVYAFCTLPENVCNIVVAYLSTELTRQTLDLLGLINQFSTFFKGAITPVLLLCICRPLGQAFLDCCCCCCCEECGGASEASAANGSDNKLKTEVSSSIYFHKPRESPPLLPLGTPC
panel of 320 non-olfactory GPCRs (Homo sapiens, UniProt P24530), sequence (P24530 27-442): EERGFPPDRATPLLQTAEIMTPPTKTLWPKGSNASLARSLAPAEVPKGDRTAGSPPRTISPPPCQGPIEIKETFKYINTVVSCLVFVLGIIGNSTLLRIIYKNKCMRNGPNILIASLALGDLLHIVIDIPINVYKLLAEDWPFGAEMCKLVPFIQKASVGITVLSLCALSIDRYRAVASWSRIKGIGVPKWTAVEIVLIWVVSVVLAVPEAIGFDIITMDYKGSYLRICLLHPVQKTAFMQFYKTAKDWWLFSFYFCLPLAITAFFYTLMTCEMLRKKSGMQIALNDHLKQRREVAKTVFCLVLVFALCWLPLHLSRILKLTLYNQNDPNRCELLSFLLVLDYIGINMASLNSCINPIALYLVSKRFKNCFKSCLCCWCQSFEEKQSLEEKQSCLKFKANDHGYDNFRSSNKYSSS
panel of 320 non-olfactory GPCRs (Homo sapiens, UniProt P30559), sequence (P30559 whole entry): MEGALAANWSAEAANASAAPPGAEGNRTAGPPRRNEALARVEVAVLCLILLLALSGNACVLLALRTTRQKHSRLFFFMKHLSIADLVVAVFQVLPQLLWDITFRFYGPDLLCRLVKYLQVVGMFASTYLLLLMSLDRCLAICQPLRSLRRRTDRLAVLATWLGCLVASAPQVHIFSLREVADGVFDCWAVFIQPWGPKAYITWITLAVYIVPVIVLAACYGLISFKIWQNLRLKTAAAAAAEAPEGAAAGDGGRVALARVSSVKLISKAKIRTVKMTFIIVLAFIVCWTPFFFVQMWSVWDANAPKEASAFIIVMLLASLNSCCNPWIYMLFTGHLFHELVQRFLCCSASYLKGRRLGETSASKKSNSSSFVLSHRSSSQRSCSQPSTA

COC(=O)[C@@](C)(NC(=O)c1cc(C)n(-c2cccc(C(F)(F)F)c2)n1)c1cccs1 [‘1350]
Fold of Basal RLU [1]: 0.9 and 1 and 0.7 and 1.3
Fold of Basal RLU [2]: 0.9 and 0.7 and 0.8 and 1.1
Fold of Basal RLU [3]: 1.4 and 0.9 and 1.1 and 1.7
Fold of Basal RLU [4]: 1.6 fold and 1.4 fold and 2.4 fold and 1.5 fold
Fold of Basal RLU [5]: 0.6 and 0.7 and 0.8
Fold of Basal RLU [6]: 0.9 and 1 and 1.1
Fold of Basal RLU [7]: 1.2 and 1 and 1.1
Fold of Basal RLU [8]: 1.3 and 0.9 and 1
Fold of Basal RLU [9]: 0.9 and 0.6 and 1.1 and 0.7
Fold of Basal RLU [10]: 0.7 and 1.2 and 0.6
Fold of Basal RLU [11]: 1.4 and 1 and 1.5 and 0.8
Fold of Basal RLU [12]: 0.7 and 0.9
Fold of Basal RLU [13]: 1.8 fold and 1.6 fold and 2.9 fold

Cc1cc(C(=O)NC(C)(c2ccco2)c2ccco2)nn1-c1cccc(C(F)(F)F)c1 [‘4936]
Fold of Basal RLU [14]: 0.7 and 1.2 and 0.8
Fold of Basal RLU [15]: 0.6 fold and 0.7 fold and 0.5 fold
Fold of Basal RLU [16]: 1.1 fold and 1.3 fold and 1.6 fold and 1.7 fold
Fold of Basal RLU [17]: 1.6 and 1.3
Fold of Basal RLU [18]: 0.5 fold and 0.9 fold and 0.6 fold
Fold of Basal RLU [19]: 0.7 and 1.4 and 0.9
Fold of Basal RLU [20]: 0.9 and 0.7 and 0.5
Fold of Basal RLU [21]: 1 fold and 1.1 fold and 0.9 fold
Fold of Basal RLU [22]: 1 fold and 1.6 fold and 0.9 fold
Fold of Basal RLU [23]: 0.8 and 1.2 and 0.6
Fold of Basal RLU [24]: 0.7 fold and 1 fold
Fold of Basal RLU [25]: 0.5 and 0.7 and 0.6
Fold of Basal RLU [26]: 0.9 and 1.1 and 1.7 and 1.3
Fold of Basal RLU [27]: 1.4 fold and 2 fold and 2.5 fold and 2.8 fold
Fold of Basal RLU [28]: 0.9 and 1.5
Fold of Basal RLU [29]: 0.7 and 0.8 and 0.6
Fold of Basal RLU [30]: 1.5 fold and 0.9 fold and 1 fold
Fold of Basal RLU [31]: 0.7 and 0.6 and 1
Fold of Basal RLU [32]: 0.6 fold and 0.5 fold and 0.9 fold and 1 fold
Fold of Basal RLU [33]: 1.8 and 2.2 and 1.2 and 1.7
Fold of Basal RLU [34]: 0.6 and 1 and 0.9 and 0.8
Fold of Basal RLU [35]: 0.5 and 1 and 0.9 and 0.6
Fold of Basal RLU [36]: 0.6 fold and 0.8 fold and 0.9 fold
Fold of Basal RLU [37]: 0.9 and 0.8 and 1
